From patent US20250049748A1, “ANALOGS OF 4-BROMO-2,5-DIMETHOXYPHENETHYLAMINE” (Terran Biosciences Inc., priority 2021, published 2025)

Test: Pharmacokinetic study in rats: plasma 2C-B after IV/PO 2C-B or PO 2C-B prodrugs
[1] = prodrug oral 10 mg/kg, male SD rats, time 0.500 h, individual animals
[2] = prodrug oral 10 mg/kg, male SD rats, time 0.500 h, mean
[3] = prodrug oral 10 mg/kg, male SD rats, time 1.00 h, individual animals
[4] = prodrug oral 10 mg/kg, male SD rats, time 1.00 h, mean
[5] = prodrug oral 10 mg/kg, male SD rats, time 2.00 h, individual animals
[6] = prodrug oral 10 mg/kg, male SD rats, time 2.00 h, mean
[7] = prodrug oral 10 mg/kg, male SD rats, time 4.00 h, individual animals
[8] = prodrug oral 10 mg/kg, male SD rats, time 4.00 h, mean
[9] = prodrug oral 10 mg/kg, male SD rats, time 7.00 h, individual animals
[10] = prodrug oral 10 mg/kg, male SD rats, time 7.00 h, mean
[11] = prodrug oral 10 mg/kg, male SD rats, time 24.0 h, individual animals
[12] = prodrug oral 10 mg/kg, male SD rats, time 24.0 h, mean
[13] = oral dosing of 2C-B prodrug, rat, time 0.500 h, individual animal
[14] = oral dosing of 2C-B prodrug, rat, time 0.500 h, mean
[15] = oral dosing of 2C-B prodrug, rat, time 1.00 h, individual animal
[16] = oral dosing of 2C-B prodrug, rat, time 1.00 h, mean
[17] = oral dosing of 2C-B prodrug, rat, time 2.00 h, individual animal
[18] = oral dosing of 2C-B prodrug, rat, time 2.00 h, mean
[19] = oral dosing of 2C-B prodrug, rat, time 4.00 h, individual animal
[20] = oral dosing of 2C-B prodrug, rat, time 4.00 h, mean
[21] = oral dosing of 2C-B prodrug, rat, time 7.00 h, individual animal
[22] = oral dosing of 2C-B prodrug, rat, time 7.00 h, mean
[23] = oral dosing of 2C-B prodrug, rat, time 24.0 h, individual animal
[24] = oral dosing of 2C-B prodrug, rat, time 24.0 h, mean

Row | Structure (SMILES) | Plasma Concentrations of metabolite 2C-B Following Oral Dosing [1] | Plasma Concentrations of metabolite 2C-B Following Oral Dosing [2] | Plasma Concentrations of metabolite 2C-B Following Oral Dosing [3] | Plasma Concentrations of metabolite 2C-B Following Oral Dosing [4] | Plasma Concentrations of metabolite 2C-B Following Oral Dosing [5] | Plasma Concentrations of metabolite 2C-B Following Oral Dosing [6] | Plasma Concentrations of metabolite 2C-B Following Oral Dosing [7] | Plasma Concentrations of metabolite 2C-B Following Oral Dosing [8] | Plasma Concentrations of metabolite 2C-B Following Oral Dosing [9] | Plasma Concentrations of metabolite 2C-B Following Oral Dosing [10] | Plasma Concentrations of metabolite 2C-B Following Oral Dosing [11] | Plasma Concentrations of metabolite 2C-B Following Oral Dosing [12] | Plasma Concentrations of metabolite 2C-B Following Oral Dosing [13] | Plasma Concentrations of metabolite 2C-B Following Oral Dosing [14] | Plasma Concentrations of metabolite 2C-B Following Oral Dosing [15] | Plasma Concentrations of metabolite 2C-B Following Oral Dosing [16] | Plasma Concentrations of metabolite 2C-B Following Oral Dosing [17] | Plasma Concentrations of metabolite 2C-B Following Oral Dosing [18] | Plasma Concentrations of metabolite 2C-B Following Oral Dosing [19] | Plasma Concentrations of metabolite 2C-B Following Oral Dosing [20] | also measured
1 | COc1cc(CCN(C(=O)OC(C)(C)C)C(=O)OC(C)(C)C)c(OC)cc1Br [Example 12, tert-butyl (4-bromo-2,5-dimethoxyphenethyl)(tert-butoxycarbonyl) carbamate] | BLQ (BLQ: Below Lower Limit of Quanification (0.5 ng/mL)) | BLQ (BLQ: Below Lower Limit of Quanification (0.5 ng/mL)) | BLQ (BLQ: Below Lower Limit of Quanification (0.5 ng/mL)) | BLQ (BLQ: Below Lower Limit of Quanification (0.5 ng/mL)) | BLQ (BLQ: Below Lower Limit of Quanification (0.5 ng/mL)) | BLQ (BLQ: Below Lower Limit of Quanification (0.5 ng/mL)) | BLQ (BLQ: Below Lower Limit of Quanification (0.5 ng/mL)) | BLQ (BLQ: Below Lower Limit of Quanification (0.5 ng/mL)) | BLQ (BLQ: Below Lower Limit of Quanification (0.5 ng/mL)) | BLQ (BLQ: Below Lower Limit of Quanification (0.5 ng/mL)) | BLQ (BLQ: Below Lower Limit of Quanification (0.5 ng/mL)) | BLQ (BLQ: Below Lower Limit of Quanification (0.5 ng/mL)) | – | – | – | – | – | – | – | – | –
2 | COc1cc(CCN2C(=O)C(C)=C(C)C2=O)c(OC)cc1Br [Example 21-B, 1-(4-bromo-2,5-dimethoxyphenethyl)-3,4-dim ethyl-1H-pyrrole-2,5-dione] | BLQ (BLQ: Below Lower Limit of Quanification (0.5 ng/mL)) | BLQ (BLQ: Below Lower Limit of Quanification (0.5 ng/mL)) | BLQ (BLQ: Below Lower Limit of Quanification (0.5 ng/mL)) | BLQ (BLQ: Below Lower Limit of Quanification (0.5 ng/mL)) | BLQ (BLQ: Below Lower Limit of Quanification (0.5 ng/mL)) | BLQ (BLQ: Below Lower Limit of Quanification (0.5 ng/mL)) | BLQ (BLQ: Below Lower Limit of Quanification (0.5 ng/mL)) | BLQ (BLQ: Below Lower Limit of Quanification (0.5 ng/mL)) | BLQ (BLQ: Below Lower Limit of Quanification (0.5 ng/mL)) | BLQ (BLQ: Below Lower Limit of Quanification (0.5 ng/mL)) | BLQ (BLQ: Below Lower Limit of Quanification (0.5 ng/mL)) | BLQ (BLQ: Below Lower Limit of Quanification (0.5 ng/mL)) | – | – | – | – | – | – | – | – | –
3 | COc1cc(CCN2C(=O)c3c(C)ccc(C)c3C2=O)c(OC)cc1Br [Example 34, 2-(4-bromo-2,5-dimethoxyphenethyl)-4,7-dimethylisoindoline-1,3-dione] | – | – | – | – | – | – | – | – | – | – | – | – | BLQ (BLQ: Below Lower Limit of Quanification (0.5 ng/mL)) | BLQ (BLQ: Below Lower Limit of Quanification (0.5 ng/mL)) | BLQ (BLQ: Below Lower Limit of Quanification (0.5 ng/mL)) | BLQ (BLQ: Below Lower Limit of Quanification (0.5 ng/mL)) | BLQ (BLQ: Below Lower Limit of Quanification (0.5 ng/mL)) | BLQ (BLQ: Below Lower Limit of Quanification (0.5 ng/mL)) | BLQ (BLQ: Below Lower Limit of Quanification (0.5 ng/mL)) | BLQ (BLQ: Below Lower Limit of Quanification (0.5 ng/mL)) | Plasma Concentrations of metabolite 2C-B Following Oral Dosing [21]: BLQ (BLQ: Below Lower Limit of Quanification (0.5 ng/mL)); Plasma Concentrations of metabolite 2C-B Following Oral Dosing [22]: BLQ (BLQ: Below Lower Limit of Quanification (0.5 ng/mL)); Plasma Concentrations of metabolite 2C-B Following Oral Dosing [23]: BLQ (BLQ: Below Lower Limit of Quanification (0.5 ng/mL)); Plasma Concentrations of metabolite 2C-B Following Oral Dosing [24]: BLQ (BLQ: Below Lower Limit of Quanification (0.5 ng/mL))
4 | CCOC(=O)C1=C(C(=O)NCCc2cc(OC)c(Br)cc2OC)CCC1 [Example 36, Ethyl 2-((4-bromo-2,5-dimethoxyphenethyl)carbamoyl)cyclopent-1-ene-1-carboxylate] | – | – | – | – | – | – | – | – | – | – | – | – | BLQ (BLQ: Below Lower Limit of Quanification (0.5 ng/mL)) | BLQ (BLQ: Below Lower Limit of Quanification (0.5 ng/mL)) | BLQ (BLQ: Below Lower Limit of Quanification (0.5 ng/mL)) | BLQ (BLQ: Below Lower Limit of Quanification (0.5 ng/mL)) | BLQ (BLQ: Below Lower Limit of Quanification (0.5 ng/mL)) | BLQ (BLQ: Below Lower Limit of Quanification (0.5 ng/mL)) | BLQ (BLQ: Below Lower Limit of Quanification (0.5 ng/mL)) | BLQ (BLQ: Below Lower Limit of Quanification (0.5 ng/mL)) | Plasma Concentrations of metabolite 2C-B Following Oral Dosing [21]: BLQ (BLQ: Below Lower Limit of Quanification (0.5 ng/mL)); Plasma Concentrations of metabolite 2C-B Following Oral Dosing [22]: BLQ (BLQ: Below Lower Limit of Quanification (0.5 ng/mL)); Plasma Concentrations of metabolite 2C-B Following Oral Dosing [23]: BLQ (BLQ: Below Lower Limit of Quanification (0.5 ng/mL)); Plasma Concentrations of metabolite 2C-B Following Oral Dosing [24]: BLQ (BLQ: Below Lower Limit of Quanification (0.5 ng/mL))
